Data taken from US20200087732A1, “IDENTIFICATION OF DRUGS TARGETING NON-GENETIC DRUG TOLERANCE PROGRAMS IN CANCER” (ETH ZURICH, priority 2016, published 2020).

Assays:
Format in all cases: cell-based
SOX2 = SOX2 levels by Western blot after MAPKi treatment; details: A375-P cells, indicated times
Method: (A) A375-P cells were treated with PLX4720 (BRAFi) or DMSO for 6 h, RNA was isolated and RNA-Seq was performed. […] Differentially expressed genes (DEGs) selected for pathway analysis are represented by red and blue dots depending on the direction of the transcriptional change (red genes are induced upon PLX4720, blue genes are repressed upon PLX4720). (B) Bar graphs showing the five top pathways with significant enrichment of the analyzed DEGs. Longer bars indicate stronger significance. (C) Top deregulated genes upon treatment with PLX4720 (left column). Top genes induced and repressed by PLX4720 are shown in separate lists. (D) Indicated cell lines were treated with 1 μM PLX4720 or 0.01% DMSO (0 h) for the indicated times and the expressional changes of selected genes associated with stemness/EMT were confirmed by qPCR. […] Data shown represent mean of independent biological triplicates ±SEM. (E) Western blot analysis of the same experiment as shown in (D). As key player in the stemness signature, SOX2 levels were assessed. P-ERK1/2 levels served as positive treatment controls. Total ERK1/2 levels served as loading control. (F) A375-P cells were treated with 1 μM PLX4720, 0.5 μM AZD6244 (MEK1/2 inhibitor) or 0.01% DMSO for the indicated times and SOX2 levels were assessed by Western blot analysis. […] (G) A375-P cells were treated with 1 μM PLX4720 (BRAFi), 0.5 μM AZD6244 (MEKi), a combination of both drugs or 0.01% DMSO for the indicated times and SOX2 levels were assessed by Western blot analysis. […] (H) A375-P cells were treated with 1 μM PLX4720 (BRAFi), 0.5 μM AZD6244 (MEKi), a combination of both drugs or 0.01% DMSO for the 24 h and the expressional changes of selected genes associated with stemness/EMT were confirmed by qPCR. […] For all Western blots, individual time points were assessed in at least two independent experiments. Representative data is shown.

[1] = test system: genes associated with stemness/EMT; experiment: qPCR of selected genes associated with stemness/EMT in A375-P cells; details: FIG. 1H, 1 μM PLX4720, 0.5 μM AZD6244 or combination of both, 24 h
Method: (A) A375-P cells were treated with PLX4720 (BRAFi) or DMSO for 6 h, RNA was isolated and RNA-Seq was performed. […] (B) Bar graphs showing the five top pathways with significant enrichment of the analyzed DEGs. Longer bars indicate stronger significance. […] Data shown represent mean of independent biological triplicates ±SEM. (E) Western blot analysis of the same experiment as shown in (D). As key player in the stemness signature, SOX2 levels were assessed. P-ERK1/2 levels served as positive treatment controls. Total ERK1/2 levels served as loading control. (F) A375-P cells were treated with 1 μM PLX4720, 0.5 μM AZD6244 (MEK1/2 inhibitor) or 0.01% DMSO for the indicated times and SOX2 levels were assessed by Western blot analysis. […] (G) A375-P cells were treated with 1 μM PLX4720 (BRAFi), 0.5 μM AZD6244 (MEKi), a combination of both drugs or 0.01% DMSO for the indicated times and SOX2 levels were assessed by Western blot analysis. […] For all Western blots, individual time points were assessed in at least two independent experiments. Representative data is shown.

S6K and BAD = experiment: Survival signaling by Western blot in A375-P/pTRIPZ cells; details: FIG. 2G, PLX4720 for 48 h
Method: (§1) (A) A375-P cells were transfected with 100 nM siRNA targeting SOX2 or a negative control siRNA. Cells were then treated with PLX4720 (BRAFi) or DMSO for 48 h. 2 h before harvesting, cells were pulsed with 3 uM EdU to label cycling cells. EdU-positive cells were detected using flow cytometry. […] Representative data is shown. (B) Quantification of experiment (A). For each condition, percentage of cycling cells upon siRNA knockdown of SOX2 was normalized to the negative control siRNA. Data shown represent mean of independent biological triplicates ±SEM. (C) A375-P cells stably transduced with pTRIPZ-SOX2 vector were treated with the indicated concentrations of doxycycline for three days or with 1 μM PLX4720 (PLX) for 24 h. SOX2 overexpression was confirmed by Western blot analysis. Lamin A served as loading control. Individual concentrations were assessed in at least two independent experiments. Representative results are shown. (D) A375-P/pTRIPZ-control or -SOX2 cells were pre-treated with 0 ng/ml (negative control) or with 50 ng/ml doxycycline for 24 h, and subsequently with DMSO or PLX4720 for an additional 48 h. 2 h before harvesting, cells were pulsed with 3 uM EdU to label cycling cells. EdU-positive cells were detected using flow cytometry. […] Cell viability was assessed by PrestoBlue assay and IC50 values were calculated. […] Survival signaling was assessed by Western blot. […]

[2] = test system: A375-P/pTRIPZ-control or -SOX2 cells; experiment: Cell viability by PrestoBlue assay; details: FIG. 2E-F; pTRIPZ-SOX2 cells with 50 ng/ml doxycycline versus 0 ng/ml; serial dilutions of PLX4720 for four days
Method: as §1

[3] = FIG. 1F, 1 μM PLX4720 or 0.5 μM AZD6244
[4] = FIG. 1G, 1 μM PLX4720, 0.5 μM AZD6244 or combination of both

Structure (SMILES) | SOX2 levels (Western blot) (SOX2; [3]) | SOX2 levels (Western blot) (SOX2; [4]) | transcript levels of selected stemness/EMT genes (qPCR) [1] | survival signaling via S6K and BAD (Western blot) (S6K and BAD) | drug sensitivity (survival curve, cell viability) [2]
Cn1cnc2c(F)c(Nc3ccc(Br)cc3Cl)c(C(=O)NOCCO)cc21 [AZD6244] | induce similar SOX2 levels | comparable effects on SOX2 levels | comparable effects on transcript levels |  | 
CCCS(=O)(=O)Nc1ccc(F)c(C(=O)c2c[nH]c3ncc(Cl)cc23)c1F [PLX4720] | induce similar SOX2 levels | comparable effects on SOX2 levels | comparable effects on transcript levels | repressed | decreased drug sensitivity when SOX2 is overexpressed
